In article PMC10296061, “Inhibition of the Mitochondrial Carnitine/Acylcarnitine Carrier by Itaconate through Irreversible Binding to Cysteine 136: Possible Pathophysiological Implications” (Biomolecules, 2023):
Changes are numbered by the printed parent chain. Like-named read-outs stand apart in the source and are kept apart here.

What was measured:
Format in all cases: biochemical
[1] = molecular target: T1, recombinant CAC (WT) (Rattus norvegicus, UniProt P97521); experiment: [3H]carnitine/carnitine antiport in proteoliposomes reconstituted with recombinant WT CAC
T1 construct: made in house; host or cells: E. coli C0214
T1 sequence (P97521 1-301): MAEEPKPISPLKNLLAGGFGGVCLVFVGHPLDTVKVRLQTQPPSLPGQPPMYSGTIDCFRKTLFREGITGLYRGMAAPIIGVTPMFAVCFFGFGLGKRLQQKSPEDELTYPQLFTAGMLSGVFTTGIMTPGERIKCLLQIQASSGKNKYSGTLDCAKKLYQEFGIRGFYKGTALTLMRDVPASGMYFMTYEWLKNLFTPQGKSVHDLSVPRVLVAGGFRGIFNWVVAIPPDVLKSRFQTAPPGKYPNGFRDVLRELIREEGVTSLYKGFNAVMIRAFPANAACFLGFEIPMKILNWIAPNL
Procedure: (§1) As previously described, the pMW7-WTratCAC recombinant plasmid was used for over-expressing the rat CAC [22]. The overlap extension method was used to introduce the mutations; in the main time, NdeI and HindIII restriction sites were also added using appropriate primers. The PCR products were purified by the QIAEX II Gel Extraction Kit (QIAGEN) and digested with NdeI and HindIII and then ligated into the pMW7. All mutations were verified by DNA sequencing. The resulting plasmid constructs were transformed into E. coli C0214. Overexpression, inclusion body fraction preparation, and purification of the CAC proteins were performed as previously described.
(§2) As previously described, recombinant CAC (WT and mutants) and ORC1 proteins were used for proteoliposome formation. For experiments with native CAC, ORC1, or ANT proteins, rat liver mitochondria, or HeLa cell mitochondria, the latter for the CAC alone, were first purified using the standard procedure of cell disruption and differential centrifugation. Then proteins were extracted using 3% Triton X-100 and reconstituted as described for the recombinant proteins. The concentration of intraliposomal carnitine and ornithine was 15 mM and 30 mM, respectively, in all samples.
(§3) To test the transport activity of the CAC, 550 μL of proteoliposomes was passed through a Sephadex G-75 column to remove the external substrate. Six hundred μL of the turbid eluate was collected, divided into samples of 100 μL each, and used for transport measurement by the inhibitor-stop method. Transport was started by adding 0.1 mM [^3H]carnitine ([^3H]ornitine or [^3H]ATP) to proteoliposome samples and stopped with 1.5 mM NEM (N-ethylmaleimide) at the indicated time interval. In the control samples, NEM was added with the labeled substrate at time zero. Transport rates were measured in 10 min, i.e., within the initial linear range of the time course, at 25 °C. After terminating the transport reaction, the external substrate was removed by chromatography on the Sephadex G-75 column, and the intraliposomal radioactivity was measured. The experimental values were corrected by subtracting the controls.
Figure 1 Effect of itaconate on the native and recombinant mitochondrial carnitine/acylcarnitine (CAC). Dose–response analysis for itaconate inhibition was carried out using proteoliposomes reconstituted with native (○) or recombinant (●) CAC carriers. After 10 min of itaconate incubation, transport activity was started by adding 0.1 mM [^3H]carnitine and stopped after 10 min as described in Section 2. Percent of residual activity with respect to the control, without itaconate treatment, was reported. The values are the means ± SD from three independent experiments.
Figure 2 Effect of different pH on the inhibition of CAC protein by itaconate. (a) Proteoliposomes reconstituted with the recombinant CAC were incubated at various pHs (range pH 6.5–8.5) for 10 min with 10 mM itaconate. (b) Dose–response analysis of inhibition by itaconate of the recombinant CAC at pH 6.5. was performed. Proteoliposomes were incubated for 10 min at pH 6.5 with itaconate at the indicated concentrations. In both (a,b), the transport activity was measured for 10 min by adding to proteoliposomes 0.1 mM [^3H]carnitine.

[2] = molecular target: T2, CAC C23V/C58V/C89S/C155V/C283S mutant (Rattus norvegicus, UniProt P97521, C155V/C23V/C283S/C58V/C89S); experiment: Transport assay in proteoliposomes, CAC mutant containing the sole C136; settings: read-out: IC50 for itaconate inhibition
T2 construct: made in house; host or cells: E. coli C0214
T2 sequence (P97521 1-301 C23V/C58V/C89S/C155V/C283S): T1 sequence (P97521 1-301) with C23V, C58V, C89S, C155V, C283S
Procedure: as §1, with “described. […]” for “described.”
To test the transport activity of the CAC, 550 μL of proteoliposomes was passed through a Sephadex G-75 column to remove the external substrate. […] Transport rates were measured in 10 min, i.e., within the initial linear range of the time course, at 25 °C. After terminating the transport reaction, the external substrate was removed by chromatography on the Sephadex G-75 column, and the intraliposomal radioactivity was measured. […]
Figure 3 Identification of residue responsible for itaconate inhibition. […] Transport activity of the WT (○), C136A (●), C155A (Δ), C23V/C58V/C89S/C155V/C283S (▲), and C23V/C58V/C89S/C136V/C155V/C283S (□) was measured by adding 0.1 mM [^3H]carnitine after treatment by itaconate at the indicated concentrations. […]

[3] = molecular target: T3, native mitochondrial carnitine/acylcarnitine carrier (CAC) (Rattus norvegicus, UniProt P97521); experiment: [3H]carnitine/carnitine antiport in proteoliposomes reconstituted with native CAC from rat liver mitochondria; settings: 10 min incubation, 0.1 mM [3H]carnitine, pH 7.0, read-out: IC50 for itaconate inhibition of [3H]carnitine/carnitine antiport
T3 construct: from tissue; host or cells: rat liver mitochondria
T3 sequence (P97521 1-301): T1 sequence (P97521 1-301)
From the text: as §2
as §3, with “In the control samples, NEM was added with the labeled substrate at time zero.” left out, “The experimental values were corrected by subtracting the controls.” left out

**Q.** `C=C(CC(=O)O)C(=O)O` [itaconate] was tested. Which “reversal of inhibition by the reducing agent DTE” value ([1]; 10 mM itaconate pre-incubation 10 min, 25 mM DTE, transport 30 min) did it give?
**A.** not able to reverse the inhibition

**Q.** What about the inhibition at 10000 µM ([1]; 10 mM itaconate, 10 min, pH 6.5, read-out: inhibition of transport) of the same compound?
**A.** ~80%

**Q.** What about the inhibition of transport ([1]; 10 mM itaconate, 10 min, pH 8.0 and pH 8.5) of the same compound?
**A.** Virtually no inhibition

**Q.** And the inhibition at 10000 µM ([1]; 10 mM itaconate, pH 7.0, 10 min, without carnitine, unreacted compound removed by G-75, read-out: inhibition compared to the control)?
**A.** ~55%

**Q.** And the type of inhibition ([1]; WT, double reciprocal plot)?
**A.** non-competitive inhibition

**Q.** What about the Ki ([1]; pH 7.0, 10 mM itaconate, Lineweaver-Burk plot) of the same compound?
**A.** 14 ± 2.6 mM

**Q.** What about the IC50 ([1]; recombinant CAC, 10 min incubation, 0.1 mM [3H]carnitine, pH 7.0, read-out: IC50 for itaconate inhibition of transport) of the same compound?
**A.** 8.4 ± 2.9 mM

**Q.** What about the IC50 ([1]; recombinant WT CAC, pH 6.5, 10 min incubation, read-out: IC50 for inhibition of transport at pH 6.5) of the same compound?
**A.** 3.8 ± 1 mM

**Q.** What about the IC50 [2] of the same compound?
**A.** 4 ± 0.14 mM

**Q.** And the IC50 [3]?
**A.** 11 ± 4.6 mM
